Assay results from patent publication US9598424B2 (Takeda Pharmaceutical Company Limited, priority 2014, dated 2017).

What was measured:
Full length human TBK1 = target: T1, Full length human TBK1 (Homo sapiens, UniProt Q9UHD2); assay: Inhibition of TBK1 Enzyme (Caliper microfluidic assay); format: biochemical; conditions: 25 μM ATP, 60 min at RT; -log(IC50), IC50 molar; read-out: TBK1 Inhibition (pIC50) (converted)
T1 construct: Full length human TBK1 with an N-terminal His-tag; His-tag (N); made in house; host or cells: Sf9 insect cells (baculovirus, pFastBac1)
T1 sequence (Q9UHD2 1-729): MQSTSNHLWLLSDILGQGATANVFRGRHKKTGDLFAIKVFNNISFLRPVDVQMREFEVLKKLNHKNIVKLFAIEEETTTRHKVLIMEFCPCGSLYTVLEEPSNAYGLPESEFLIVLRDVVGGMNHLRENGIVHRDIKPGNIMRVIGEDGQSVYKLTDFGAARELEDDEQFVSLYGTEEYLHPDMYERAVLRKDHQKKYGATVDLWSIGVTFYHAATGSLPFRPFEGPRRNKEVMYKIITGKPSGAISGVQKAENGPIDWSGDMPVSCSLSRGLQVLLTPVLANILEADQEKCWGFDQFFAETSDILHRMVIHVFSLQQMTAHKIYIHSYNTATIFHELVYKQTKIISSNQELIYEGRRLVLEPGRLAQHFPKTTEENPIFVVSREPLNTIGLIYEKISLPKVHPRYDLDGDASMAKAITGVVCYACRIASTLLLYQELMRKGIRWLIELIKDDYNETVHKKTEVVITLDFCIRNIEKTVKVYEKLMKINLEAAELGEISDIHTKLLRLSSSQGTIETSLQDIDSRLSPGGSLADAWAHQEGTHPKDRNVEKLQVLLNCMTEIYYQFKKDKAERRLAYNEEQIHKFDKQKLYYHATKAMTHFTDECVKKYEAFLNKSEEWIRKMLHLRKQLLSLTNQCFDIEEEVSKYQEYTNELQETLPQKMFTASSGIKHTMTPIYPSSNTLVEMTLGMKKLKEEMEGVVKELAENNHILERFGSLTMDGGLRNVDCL
Description: Full length human TBK1 with an N-terminal His-tag was cloned into the pFastBacl vector and was transfected into Sf9 cells. 72 hours later the virus was harvested and amplified through two additional rounds of infections. Then 400 ml of the resulting virus stock was used to infect 10L of Sf9 cells at a density of 2×10^6 cells/ml. Cell pellets were harvested 48 hours post infection and were lysed by freeze-thaw, homogenization and sonication in binding buffer (25 mM Tris pH7.6, 1 M NaCl, 10 mM imidazole, 0.5 mM TCEP) plus 0.1% Triton X-100 and complete protease inhibitor cocktail. The lysate was spun and the supernatant was purified with a HisTrap FF crude and a Superdex 200 pg column.
TBK1 inhibition is determined using a 384 well plate format in buffer containing 20 mM Hepes, pH 7.4, 10 mM MgCl2, 1 mM EDTA, 0.01% Brij-L23, 1 mM DTT. Each test compound is prepared in DMSO using 2.5-fold serial dilutions for 11 data points, which are added to the buffer so that each dilution contains 1% DMSO. To each well is added 2 μL of 1 μm 5FAM-DRHDSGLDSMKDE-NH2 (in buffer), 2 μL of diluted test compound (1% DMSO in buffer), and 5 μL of 3 nM TBK1 and 25 μM ATP (in buffer). The reaction mixture is incubated at RT for 60 min, and quenched by adding 20 mM Hepes, pH 7.4, 10 mM MgCl2, 1 mM EDTA, 0.01% Brij-L23, 1 mM DTT+25 mM EDTA. To quantify the fluorescent-labeled substrate and product following reaction, the test plate is loaded on a Caliper LC-3000, which measures percent of conversion by microfluidic-based separation. Corresponding IC50 values are calculated by non-linear curve fitting of the compound concentrations and percent of inhibition to the standard IC50 equation and reported as pIC50, i.e., −log(IC50), where IC50 is the molar concentration.

TBK1 = target: T2, TBK1 (Homo sapiens, UniProt Q9UHD2); assay: Inhibition of TBK1 in Cells (TLR3 driven ISRE β-lactamase reporter assay); format: cell-based; conditions: poly IC-LMW stimulation 16 hrs; -log(EC50), EC50 molar; read-out: Inhibition of TBK1 in cells pEC50 (EC) (converted)
T2 construct: host or cells: RA1-ISRE beta-lactamase reporter cells
T2 sequence (Q9UHD2 1-729): T1 sequence (Q9UHD2 1-729)
Description: TBK1 inhibition is determined using a TLR3 driven RA1-ISRE β-lacatamase reporter assay (Life Technologies). In the assay 50,000 cells/well are plated in black clear bottom 384 well plate. Each test compound is prepared in DMSO using 2.5-fold serial dilutions for 11 data points, which are then added to the media. Cells are stimulated with 0.15 mg/ml poly IC-LMW (Invivogen) for 16 hrs. Reporter activity is detected using the LiveBLAzer-FRET B/G CCF4-AM substrate (Life Technologies) and the plate is read using the Spectramax M5 instrument. Corresponding EC50 values are calculated by non-linear curve fitting of the compound concentrations and percent of inhibition to the standard EC50 equation and reported as pEC50, i.e., −log(EC50), where EC50 is the molar concentration.

| Compound | IC50 (Full length human TBK1) | EC50 (TBK1) |
| --- | --- | --- |
| O=C(NC1CCCOC1)c1nc(-c2ccc3nc(NC(=O)C4CC4)cn3c2)cs1 (stereo in doubt) [Example 88, (S)-4-(2-(cyclopropanecarboxamido)imidazo[1,2-a]pyridin-6-yl)-N-(tetrahydro-2H-pyran-3-yl)thiazole-2-carboxamide] | 63.1 nM | 1550 nM |
| O=C(NCC(F)F)c1nc(-c2cn3cc(NC(=O)C4CC4)nc3cn2)cs1 [Example 5, 4-(2-(cyclopropanecarboxamido)imidazo[1,2-a]pyrazin-6-yl)-N-(2,2-difluoroethyl)thiazole-2-carboxamide] | 10 nM | 794 nM |
| O=C(NCC(F)(F)F)c1nc(-c2cn3cc(NC(=O)C4CC4)nc3cn2)cs1 [Example 6, 4-(2-(cyclopropanecarboxamido)imidazo[1,2-a]pyrazin-6-yl)-N-(2,2,2-trifluoroethyl)thiazole-2-carboxamide] | 7.94 nM | 355 nM |
| O=C(NCC(F)F)c1nc(-c2ccc3nc(NC(=O)C4CC4)cn3n2)cs1 [Example 8, 4-(2-(cyclopropanecarboxamido)imidazo[1,2-b]pyridazin-6-yl)-N-(2,2-difluoroethyl)thiazole-2-carboxamide] | 200 nM | 9120 nM |
| C[C@@H](NC(=O)c1nc(-c2ccc3nc(NC(=O)C4CC4)cn3c2)c[nH]1)C(F)(F)F [Example 9, 4-{2-cyclopropaneamidoimidazo[1,2-a]pyridin-6-yl}-N-[(2R)-1,1,1-trifluoropropan-2-yl]-1H-imidazole-2-carboxamide] | 10 nM | 229 nM |
| C[C@H](NC(=O)c1nc(-c2ccc3nc(NC(=O)C4CC4)cn3c2)c[nH]1)C(F)(F)F [Example 10, 4-{2-cyclopropaneamidoimidazo[1,2-a]pyridin-6-yl}-N-[(2S)-1,1,1-trifluoropropan-2-yl]-1H-imidazole-2-carboxamide] | 316 nM | > 50100 nM |
| CC(F)(F)CNC(=O)c1nc(-c2ccc3nc(NC(=O)C4CC4)cn3c2)c[nH]1 [Example 11, 4-{2-cyclopropaneamidoimidazo[1,2-a]pyridin-6-yl}-N-(2,2-difluoropropyl)-1H-imidazole-2-carboxamide] | 63.1 nM | 813 nM |
| O=C(NCC(F)F)c1nc(-c2ccc3nc(NC(=O)C4CC4)cn3c2)c[nH]1 [Example 12, 4-{2-cyclopropaneamidoimidazo[1,2-a]pyridin-6-yl}-N-(2,2-difluoroethyl)-1H-imidazole-2-carboxamide] | 20 nM | 955 nM |
| O=C(CF)Nc1cn2cc(-c3csc(C(=O)NCC(F)(F)F)c3)ccc2n1 [Example 16, 4-(2-(2-fluoroacetamido)imidazo[1,2-a]pyridin-6-yl)-N-(2,2,2-trifluoroethyl)thiophene-2-carboxamide] | 79.4 nM | 1050 nM |
| N#CCC(=O)Nc1cn2cc(-c3csc(C(=O)NCC(F)(F)F)c3)ccc2n1 [Example 17, 4-(2-(2-cyanoacetamido)imidazo[1,2-a]pyridin-6-yl)-N-(2,2,2-trifluoroethyl)thiophene-2-carboxamide] | 79.4 nM | 2950 nM |
| O=C(NCC(F)F)c1cc(-c2ccc3nc(NC(=O)C4CC4)cn3n2)cs1 [Example 18, 4-(2-(cyclopropanecarboxamido)imidazo[1,2-b]pyridazin-6-yl)-N-(2,2-difluoroethyl)thiophene-2-carboxamide] | 10 nM | 251 nM |
| O=C(NCC(F)F)c1cc(-c2cn3cc(NC(=O)C4CC4)nc3cn2)cs1 [Example 19, 4-(2-(cyclopropanecarboxamido)imidazo[1,2-a]pyrazin-6-yl)-N-(2,2-difluoroethyl)thiophene-2-carboxamide] | 5.01 nM | 407 nM |
| O=C(NCC(F)(F)F)c1nc(-c2ccc3nc(NC(=O)C4CC4)cn3n2)cs1 [Example 21, 4-(2-(cyclopropanecarboxamido)imidazo[1,2-b]pyridazin-6-yl)-N-(2,2,2-trifluoroethyl)thiazole-2-carboxamide] | 50.1 nM | 3390 nM |
| Cc1sc(C(=O)NCC(F)(F)F)cc1-c1ccc2nc(NC(=O)C3CC3)cn2n1 [Example 23, 4-(2-(cyclopropanecarboxamido)imidazo[1,2-b]pyridazin-6-yl)-5-methyl-N-(2,2,2-trifluoroethyl)thiophene-2-carboxamide] | 79.4 nM | 5370 nM |
| CC(NC(=O)c1nc(-c2ccc3nc(NC(=O)C4CC4)cn3c2)c[nH]1)C(F)(F)F (centres unmarked) [Example 24, 4-(2-(cyclopropanecarboxamido)imidazo[1,2-a]pyridin-6-yl)-N-(1,1,1-trifluoropropan-2-yl)-1H-imidazole-2-carboxamide] | 25.1 nM | 468 nM |
| O=C(NCC(F)(F)F)c1cc(-c2ccc3nc(NC(=O)C4CC4)cn3c2)sn1 [Example 26, 5-(2-(cyclopropanecarboxamido)imidazo[1,2-a]pyridin-6-yl)-N-(2,2,2-trifluoroethyl)isothiazole-3-carboxamide] | 79.4 nM | 759 nM |
| O=C(NCC(F)F)c1cc(-c2ccc3nc(NC(=O)C4CC4)cn3c2)n[nH]1 [Example 27, 5-(2-(cyclopropanecarboxamido)imidazo[1,2-a]pyridin-6-yl)-N-(2,2-difluoroethyl)-1H-pyrazole-3-carboxamide] | 31.6 nM | 3720 nM |
| CN(CC(F)(F)F)C(=O)c1cc(-c2ccc3nc(NC(=O)C4CC4)cn3c2)cs1 [Example 28, 4-(2-(cyclopropanecarboxamido)imidazo[1,2-a]pyridin-6-yl)-N-methyl-N-(2,2,2-trifluoroethyl)thiophene-2-carboxamide] | 12.6 nM | 676 nM |
| Cc1sc(C(=O)NCC(F)(F)F)cc1-c1ccc2nc(NC(=O)C3CC3)cn2c1 [Example 29, 4-(2-(cyclopropanecarboxamido)imidazo[1,2-a]pyridin-6-yl)-5-methyl-N-(2,2,2-trifluoroethyl)thiophene-2-carboxamide] | 39.8 nM | 6760 nM |
| Cc1sc(C(=O)NCC(F)(F)F)cc1-c1cn2cc(NC(=O)C3CC3)nc2cn1 [Example 30, 4-(2-(cyclopropanecarboxamido)imidazo[1,2-a]pyrazin-6-yl)-5-methyl-N-(2,2,2-trifluoroethyl)thiophene-2-carboxamide] | 25.1 nM | 6460 nM |
| O=C(NCC(F)(F)F)c1cc(-c2ccc3nc(NC(=O)C4CC4)cn3c2)cs1 [Example 32, 4-(2-(cyclopropanecarboxamido)imidazo[1,2-a]pyridin-6-yl)-N-(2,2,2-trifluoroethyl)thiophene-2-carboxamide] | 5.01 nM | 120 nM |
| O=C(NCC(F)(F)F)c1cc(-c2cn3cc(NC(=O)C4CC4)nc3cn2)cs1 [Example 33, 4-(2-(cyclopropanecarboxamido)imidazo[1,2-a]pyrazin-6-yl)-N-(2,2,2-trifluoroethyl)thiophene-2-carboxamide] | 5.01 nM | 269 nM |
